Test results reported in paper PMC5484023, “Multi-site binding of epigallocatechin gallate to human serum albumin measured by NMR and isothermal titration calorimetry” (Bioscience Reports, 2017).

Biological target: T1, human serum albumin (HSA) (Homo sapiens, UniProt P02768)
T1 construct: gene ALB; full-length, fatty acid and globulin-free HSA purified from serum
Assay: ITC ([…]°C, pH […]), two sets of independent sites; confirmed by 1H NMR chemical shift titration (Kd1 […])
Type: binding

T1 sequence (P02768 25-609): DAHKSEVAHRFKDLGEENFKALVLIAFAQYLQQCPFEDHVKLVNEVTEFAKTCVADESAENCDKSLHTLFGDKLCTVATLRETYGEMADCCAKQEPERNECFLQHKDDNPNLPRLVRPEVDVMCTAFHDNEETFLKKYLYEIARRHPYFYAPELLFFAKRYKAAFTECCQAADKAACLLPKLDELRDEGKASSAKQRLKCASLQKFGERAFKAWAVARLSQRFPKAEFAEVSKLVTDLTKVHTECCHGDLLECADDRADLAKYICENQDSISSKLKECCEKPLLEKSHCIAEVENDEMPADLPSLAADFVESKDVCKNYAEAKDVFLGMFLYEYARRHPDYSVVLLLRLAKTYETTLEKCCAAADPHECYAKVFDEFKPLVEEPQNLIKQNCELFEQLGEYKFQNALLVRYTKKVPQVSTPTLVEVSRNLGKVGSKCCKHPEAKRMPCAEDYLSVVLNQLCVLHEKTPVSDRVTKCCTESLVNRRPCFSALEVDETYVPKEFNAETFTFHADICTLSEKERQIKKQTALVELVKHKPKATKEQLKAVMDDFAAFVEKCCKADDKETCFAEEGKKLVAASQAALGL

O=C(O[C@@H]1Cc2c(O)cc(O)cc2O[C@@H]1c1cc(O)c(O)c(O)c1)c1cc(O)c(O)c(O)c1 [epigallocatechin gallate]
Kd: 22 ± 4 µM
